# According to patent US4711895A, “4-hydroxy-2-cyclopentenone, process for production thereof, pharmaceutical composition comprising it” (Teijin Limited, priority 1984, dated 1987):
# Read-outs that look alike come from different tables or passages of the source.
# Assays:
# L1210 leukemia cells = test: Action of inhibiting proliferation of L1210 leukemia cell; type: cell-based; details: RPMI medium, 10% FCS, 37° C., 4 days, trypan blue
# Experimental: Measurement of the action of inhibiting Proliferation of L1210 leukemia cell
# L1210 leukemia cells were added to an RPMI medium containing 10% FCS (fetal calf serum), and the concentration of the cells was adjusted to […]. Each of the test compounds shown in Table I was dissolved in 99.5% ethanol. Prior to use, the final concentration of the ethanol solution was adjusted to less than 0.1%, and it was added to the culture medium. The culture medium was then maintained at 37° C. in a stationary condition for 4 days. After the cultivation, the number of surviving cells was measured by dyeing with trypan blue. As a control, 0.1% ethanol was used. A dose-reaction curve plotted from the ratios of proliferation against the control, and IC50 was determined.
# [1] = system: P388 mouse leukemia cells; test: Antitumor effect on P388 mouse leukemia tumor in ICR mice; type: in vivo; details: i.p., 5 days
# Experimental: Measurement of the antitumor effect on P338 mouse leukemia tumor
# 1×10^5 P388 mouse leukemia cells were intraperitoneally administered to ICR mice. After the lapse of 24 hours, each of the test compounds shown in Table II was intraperitoneally administered to the mice for 5 days. The periods of survival of these animals were examined and the increase of their life span (ILS%) were determined.
# [2] = Mus musculus, 96 h, read-out: IC50
Compound,IC50 (L1210 leukemia cells; [2]),Increase of life span ILS (%) ([1]; 5 mg/kg/day),Survival ([1]; 5 mg/kg/day),Increase of life span ILS (%) ([1]; 10 mg/kg/day),Survival ([1]; 10 mg/kg/day),IC50 (L1210 leukemia cells),Increase of life span ILS (%) ([1]; 2.5 mg/kg/day),Survival ([1]; 2.5 mg/kg/day),Increase of life span ILS (%) ([1]; 15 mg/kg/day),Survival ([1]; 15 mg/kg/day)
"CCCCCCCC[C@@]1(O)C=CC(=O)/C1=C/CCCCCC(=O)OC [Compound 142, (4R)-5-[(E)-6-methoxycarbonylhexylidene]-4-hydroxy-4-octyl-2-cyclopentenone]",0.15 µg/mL,5.4%,10.3 ± 0.5 days,15.3%,11.3 ± 0.5 days,–,–,–,–,–
"COC(=O)CCCCCC=C1C(=O)C(Cl)=CC1(O)CCCc1ccc(OC)c(OC)c1 (stereo not drawn) [Compound 152, 2-chloro-4-hydroxy-4-[3-(3,4-dimethoxyphenyl)propyl]-5-(6-methoxycarbonylhexylidene)-2-cyclopentenone]",0.06 µg/mL,–,–,19.4%,11.7 ± 1.1 days,–,–,–,–,–
"CCCCCCCCC1(O)C=C(Cl)C(=O)C1=CCCCCCC(=O)OC (stereo not drawn) [Compound 154, 2-chloro-4-hydroxy-5-(6-methoxycarbonylhexylidene)-4-octyl-2-cyclopentenone]",0.03 µg/mL,–,–,7.1%,10.5 ± 0.8 days,–,–,–,–,–
O=C1C=CC(O)(CCCCOc2ccccc2)C1=C/C=C/C(O)CCCO (stereo not drawn) [Compound 148],–,32.7%,13.0 ± 1.4 days,29.6%,12.7 ± 0.7 days,1.5 µg/mL,15.3%,11.3 ± 0.5 days,–,–
"COC(=O)CCCCC/C=C1\C(=O)C(Cl)=CC1(O)CCC(C)CCCC(C)C (stereo not drawn) [Compound 156, 2-chloro-4-(3,7-dimethyloctyl)-4-hydroxy-5-[(Z)-6-methoxycarbonylhexylidene]-2-cyclopentenone]",0.035 µg/mL,–,–,–,–,–,–,–,–,–
"CCCCCCCC[C@@]1(O)C=CC(=O)/C1=C\CCCCCC(=O)OC [Compound 144, (4R)-5-[(Z)-6-methoxycarbonylhexylidene]-4-hydroxy-4-octyl-2-cyclopentenone]",0.15 µg/mL,2.9%,10.7 ± 0.5 days,17.3%,12.2 ± 1.2 days,–,–,–,12.5%,11.7 ± 0.5 days
"COC(=O)CCCCC/C=C1/C(=O)C(Cl)=CC1(O)CCC(C)CCCC(C)C (stereo not drawn) [Compound 158, 2-chloro-4-(3,7-dimethyloctyl)-4-hydroxy-5-[(E)-6-methoxycarbonylhexylidene]-2-cyclopentenone]",0.025 µg/mL,–,–,–,–,–,–,–,–,–
"CC(C)=CCCC(C)=CC(O)C1C(=O)C=CC1(O)CCCCOc1ccccc1 (stereo not drawn) [Compound 228, 4-(4-phenoxybutyl)-4-hydroxy-5-(3,7-dimethyl-1-hydroxy-2,6-octadiene)-2-cyclopentenone]",0.4 µg/mL,–,–,–,–,–,–,–,4.1%,10.2 ± 0.9 days
"COC(=O)CCCCCC(O)C1C(=O)C(Cl)=CC1(O)CCCc1ccc(OC)c(OC)c1 (stereo not drawn) [Compound 226, 2-chloro-4-hydroxy-4-[3-(3,4-dimethoxyphenyl)propyl]-5-(1-hydroxy-6-methoxycarbonylhexyl)-2-cyclopentenone]",0.2 µg/mL,10.0%,11.0 ± 0 days,–,–,–,–,–,–,–
